IC90 and melting point data for six compounds are collected here from patent US6825210B2, “Tricyclic compounds useful as HIV reverse transcriptase inhibitors” (Bristol-Myers Squibb Pharma Company, priority 2001, dated 2004).

≈ marks a conversion by molar mass, not a printed value.

The first data set has as its system HIV-1 (RF). Description: HIV RNA assay: microplate based compound evaluation in HIV-1 infected MT-2 cells. To be noted: Human immunodeficiency virus 1, MT2, 72 h; HIV-1 (RF) infected MT-2 cells, 3 days culture; value used to standardize the virus inoculum; read-out: IC90 (concentration of compound required to reduce the HIV RNA level by 90%). Type of data set: cell-based. Here is the method:
DNA Plasmids and in Vitro RNA Transcripts:
Plasmid pDAB 72 containing both gag and pol sequences of BH10 (bp 113-1816) cloned into PTZ 19R was prepared according to Erickson-Viitanen et al. AIDS Research and Human Retroviruses 1989, 5, 577. The plasmid was linearized with Bam HI prior to the generation of in vitro RNA transcripts using the Riboprobe Gemini system II kit (Promega) with T7 RNA polymerase. Synthesized RNA was purified by treatment with RNase free DNAse (Promega), phenol-chloroform extraction, and ethanol precipitation. RNA transcripts were dissolved in water, and stored at −70° C. The concentration of RNA was determined from the A260.
Biotinylated capture probes were purified by HPLC after synthesis on an Applied Biosystems (Foster City, Calif.) DNA synthesizer by addition of biotin to the 5′ terminal end of the oligonucleotide, using the biotin-phosphoramidite reagent of Cocuzza, Tet. Lett. 1989, 30, 6287. […]
MT-2 and MT-4 cells were maintained in RPMI 1640 supplemented with 5% fetal calf serum (FCS) for MT-2 cells or 10% FCS for MT-4 cells, 2 mM L-glutamine and 50 μg/mL gentamycin, all from Gibco. […] Infectious titers of HIV-1(RF) stocks were 1-3×10^7 PFU (plaque forming units)/mL as measured by plaque assay on MT-2 cells (see below). […]
As to `Nc1ccn([C@H]2CC[C@@H](CO)O2)c(=O)n1` [ddC, 2′,3′-dideoxycytidine], the IC90 was found to be 0.2 µg/mL (≈ 0.947 µM).

System in the next data set: not given
Assay: not given
Details: not given
Broadly, the melting point is the temperature of the solid-liquid transition. Consider `CC(C)OCC1(C(F)(F)F)c2cc(Cl)ccc2Nc2ncc(Cl)cc21` (stereo not drawn) [Compound 9, 3,7-Dichloro-5-isopropoxymethyl-5-trifluoromethyl-5,10-dihydro-benzo[b][1,8]naphthyridine], for which the melting point fell in the range of 137 to 138 °C.

As for `CC(C)OCC1(C(F)(F)F)c2cc(F)ccc2Nc2c1cc(Cl)c[n+]2[O-]` (stereo not drawn) [Compound 7, 3-Chloro-7-fluoro-5-isopropoxymethyl-5-trifluoromethyl-5,10-dihydro-benzo[b][1,8]naphthyridine 1-oxide], the melting point was 165 to 166 °C.

`CC(C)OCC1(C(F)(F)F)c2cc(C#N)ccc2Nc2ncc(C#N)cc21` (stereo not drawn) [Compound 17, 3,7-dicyano-5-trifluoromethyl-5-isopropoxymethyl-5,10-dihydrobenzo[b][1,8]naphthyridine] came in with a melting point of 226 to 227 °C.

The compound `CC(C)OCC1(C(F)(F)F)c2cc(C#N)ccc2Nc2ncc(Br)cc21` (stereo not drawn) [Compound 15, 3-bromo-7-cyano-5-trifluoromethyl-5-isopropoxymethyl-5,10-dihydrobenzo[b][1,8]naphthyridine] came in with a melting point of 76 to 77 °C.

Compound `CC(C)OCC1(C(F)(F)F)c2cc(F)ccc2Nc2ncc(Cl)cc21` (stereo not drawn) [Compound 6, 3-Chloro-7-fluoro-5-isopropoxymethyl-5-trifluoromethyl-5,10-dihydro-benzo[b][1,8]naphthyridine] came in with a melting point of 96 to 97 °C.
